Among the data in US12291508B2, “Hydrazide containing nuclear transport modulators and uses thereof” (Karyopharm Therapeutics Inc., priority 2011, dated 2025) are IC50 values, retold here.

In the test the test system is MM.1S multiple myeloma cell line. Briefly: CellTiter 96 AQueous One Solution cell proliferation assay, MM.1S. The test is classed as cell-based. Particulars: Homo sapiens, MM1.S, 72 h of treatment, read-out: Cytotoxicity Assay. The source says: The CellTiter 96® AQueous One Solution cell proliferation assay (Promega) was used on MM.1S multiple myeloma cell line to study the cytotoxic and cytostatic properties of the compounds. The assay is based on the cleavage of the tetrazolium salt, MTS, in the presence of an electron-coupling reagent PES (phenazine ethosulfate). The MTS tetrazolium compound is bioreduced by cells into a colored formazan product that is soluble in tissue culture medium. This conversion is presumably accomplished by NADPH or NADH produced by dehydrogenase enzymes in metabolically active cells. Assays are performed by adding a small amount of the CellTiter 96® AQueous One solution reagent directly to culture wells, incubating for 1-4 hours and then recording the absorbance at 490 nm with a 96-well plate reader.
The cells were seeded at 5×10^3 to 1.5×10^4 cells in each well of a 96-well plate in 100 μL of fresh culture medium and adherent cells were allowed to attach overnight. The stock solutions of the compounds were diluted in cell culture medium to obtain eight concentrations of each drug, ranging from 1 nM to 30 μM and DMSO at less than 1% v/v was used as a negative control. The resulting drug solutions were transferred onto the cells. After 72 h of treatment, 20 μl of CellTiter 96® AQueous reagent was added into each well of the 96-well assay plates and the plate was incubated at 37° C. for 1-4 hours in a humidified, 5% CO2 atmosphere. Then the absorbance of each well was recorded at 490 nm using a 96-well plate reader. In most cases, the assay was performed in triplicate and the results were presented as half maximal inhibitory concentration (IC50). Optical density versus compound concentration was plotted and analyzed using non-linear regression equations (IDBS XLfit) and the IC50 for each compound was calculated.
Turning to `O=C(/C=C\n1cnc(-c2cc(C(F)(F)F)cc(C(F)(F)F)c2)n1)NN1CC(O)C1` [Compound I-26, (Z)-3-(3-(3,5-bis(trifluoromethyl)phenyl)-1H-1,2,4-triazol-1-yl)-N-(3-hydroxyazetidin-1-yl)acrylamide], the IC50 is not above 1 µM.
With `CN(NC(=O)/C=C\n1cnc(-c2cc(C(F)(F)F)cc(C(F)(F)F)c2)n1)c1cccnc1` [Compound I-11, (Z)-3-(3-(3,5-bis(trifluoromethyl)phenyl)-1H-1,2,4-triazol-1-yl)-N′-methyl-N′-(pyridin-3-yl)acrylohydrazide] the figure was not above 1 µM; with `O=C(/C=C\n1cnc(-c2cc(C(F)(F)F)cc(C(F)(F)F)c2)n1)NN1CCN(Cc2ccccc2)CC1` [Compound I-20, (Z)-N-(4-benzylpiperazin-1-yl)-3-(3-(3,5-bis(trifluoromethyl)phenyl)-1H-1,2,4-triazol-1-yl) acrylamide], not above 1 µM.
The figure for `O=C(/C=C\n1cnc(-c2cc(C(F)(F)F)cc(C(F)(F)F)c2)n1)NNc1cccnc1` [Compound I-13, (Z)-3-(3-(3,5-bis(trifluoromethyl)phenyl)-1H-1,2,4-triazol-1-yl)-N′-(pyridin-3-yl)acrylohydrazide] is not above 1 µM; for `O=C(/C=C\n1cnc(-c2cc(C(F)(F)F)cc(C(F)(F)F)c2)n1)NN1CCCCCC1` [Compound I-16, (Z)—N-(azepan-1-yl)-3-(3-(3,5-bis(trifluoromethyl)phenyl)-1H-1,2,4-triazol-1-yl)acrylamide] it is not above 1 µM; for `O=C(/C=C\n1cnc(-c2cc(C(F)(F)F)cc(C(F)(F)F)c2)n1)NNc1ccncn1` [Compound I-23, (Z)-3-(3-(3,5-bis(trifluoromethyl)phenyl)-1H-1,2,4-triazol-1-yl)-N′-(pyrimidin-4-yl)acrylohydrazide] it is not above 1 µM.
With `Cc1cccnc1N(C)NC(=O)/C=C\n1cnc(-c2cc(C(F)(F)F)cc(C(F)(F)F)c2)n1` [Compound I-9, (Z)-3-(3-(3,5-bis(trifluoromethyl)phenyl)-1H-1,2,4-triazol-1-yl)-N′-methyl-N′-(3-methylpyridin-2-yl)acrylohydrazide] the figure was not above 1 µM; with `O=C(/C=C\n1cnc(-c2cc(C(F)(F)F)cc(C(F)(F)F)c2)n1)NNC1CC1` [Compound I-25, (Z)-3-(3-(3,5-bis(trifluoromethyl)phenyl)-1H-1,2,4-triazol-1-yl)-N′-cyclopropylacrylohydrazide], not above 1 µM.
As to `Cc1cc(NNC(=O)/C=C\n2cnc(-c3cc(C(F)(F)F)cc(C(F)(F)F)c3)n2)nc(C)n1` [Compound I-17, (Z)-3-(3-(3,5-bis(trifluoromethyl)phenyl)-1H-1,2,4-triazol-1-yl)-N′-(2,6-dimethylpyrimidin-4-yl)acrylohydrazide], the IC50 is not above 1 µM.
The figure for `O=C(/C=C\n1cnc(-c2cc(C(F)(F)F)cc(C(F)(F)F)c2)n1)NN1CCCC1` [Compound I-6, (Z)-3-(3-(3,5-bis(trifluoromethyl)phenyl)-1H-1,2,4-triazol-1-yl)-N-(pyrrolidin-1-yl)acrylamide] is not above 1 µM; for `CCN1CCN(NC(=O)/C=C\n2cnc(-c3cc(C(F)(F)F)cc(C(F)(F)F)c3)n2)CC1` [Compound I-21, (Z)-3-(3-(3,5-bis(trifluoromethyl)phenyl)-1H-1,2,4-triazol-1-yl)-N-(4-ethylpiperazin-1-yl)acrylamide] it is not above 1 µM.
With `O=C(/C=C\n1cnc(-c2cc(C(F)(F)F)cc(C(F)(F)F)c2)n1)NNC1CCS(=O)(=O)C1` (stereo not shown) [Compound I-15, (Z)-3-(3-(3,5-bis(trifluoromethyl)phenyl)-1H-1,2,4-triazol-1-yl)-N′-(1,1-dioxotetrahydrothiophen-3yl)acrylohydrazide] the figure was not above 1 µM.
`O=C(/C=C\n1cnc(-c2cc(C(F)(F)F)cc(C(F)(F)F)c2)n1)NN1CCOCC1` [Compound I-22, (Z)-3-(3-(3,5-bis(trifluoromethyl)phenyl)-1H-1,2,4-triazol-1-yl)-N-morpholinoacrylamide]: the IC50 was not above 1 µM.
